This note sets out measurements from PMC5218480 (PLoS ONE, 2017).

For this test, the system named is MV-4-11 cells. Put plainly: Gene expression microarray analysis (Affymetrix PrimeView) and GSEA. It is filed as cell-based, human. The arrangement: RFU PODN (11730768_x_at) / Fold change /veh PODN (11730768_x_at) / RFU LINC00158 (11744669_a_at) / Fold change /veh LINC00158 (11744669_a_at) / RFU DUSP10 (11751237_a_at) / Fold change /veh DUSP10 (11751237_a_at) / RFU ID3 (11757404_x_at) / Fold change /veh ID3 (11757404_x_at) / RFU PLEKHG5 (11737974_s_at) / Fold change /veh PLEKHG5 (11737974_s_at) / RFU LRRC4B (11730491_at) / Fold change /veh LRRC4B (11730491_at) / RFU GIMAP4 (11747438_a_at) / Fold change /veh GIMAP4 (11747438_a_at) / RFU KRT8 (11758183_x_at) / Fold change /veh KRT8 (11758183_x_at) / RFU CNN1 (11734310_a_at) / Fold change /veh CNN1 (11734310_a_at) / RFU VPS37D (11726825_at) / Fold change /veh VPS37D (11726825_at) / RFU C10orf10 (11716522_x_at) / Fold change /veh C10orf10 (11716522_x_at) / RFU KIR2DL2 /// KIR2DL4 /// KIR2DL5A /// KIR2DL5B /// KIR2DS1 /// KIR2DS2 /// KIR2DS3 /// KIR2DS4 /// KIR3DL3 /// KIR3DL3 /// KIR3DS1 (11738374_at) / Fold change /veh KIR2DL2 /// KIR2DL4 /// KIR2DL5A /// KIR2DL5B /// KIR2DS1 /// KIR2DS2 /// KIR2DS3 /// KIR2DS4 /// KIR3DL3 /// KIR3DL3 /// KIR3DS1 (11738374_at) / RFU C1QL1 (11718748_at) / Fold change /veh C1QL1 (11718748_at) / RFU TMPRSS4 (11747572_a_at) / Fold change /veh TMPRSS4 (11747572_a_at) / RFU HAMP (11756126_x_at) / Fold change /veh HAMP (11756126_x_at) / RFU RNFT2 (11725882_a_at) / Fold change /veh RNFT2 (11725882_a_at) / RFU NR4A2 (11747474_a_at) / Fold change /veh NR4A2 (11747474_a_at) / RFU ABCC12 (11746883_a_at) / Fold change /veh ABCC12 (11746883_a_at) / RFU TMEM136 (11760407_x_at) / Fold change /veh TMEM136 (11760407_x_at) / RFU CLDN22 /// WWC2 (11732394_at) / Fold change /veh CLDN22 /// WWC2 (11732394_at) / RFU HLA-DPB1 (11760878_x_at) / Fold change /veh HLA-DPB1 (11760878_x_at) / RFU SPINT1 (11716480_a_at) / Fold change /veh SPINT1 (11716480_a_at) / RFU GAP43 (11754022_s_at) / Fold change /veh GAP43 (11754022_s_at) / RFU A4GNT (11735810_at) / Fold change /veh A4GNT (11735810_at) / RFU PRB3 (11715151_x_at) / Fold change /veh PRB3 (11715151_x_at) / RFU TUBB4B (11761932_at) / Fold change /veh TUBB4B (11761932_at) / RFU CAPN14 (11732068_a_at) / Fold change /veh CAPN14 (11732068_a_at) / RFU TMCC2 (11721928_a_at) / Fold change /veh TMCC2 (11721928_a_at) / RFU IRGQ (11745062_a_at) / Fold change /veh IRGQ (11745062_a_at) / RFU FAM174B (11720279_a_at) / Fold change /veh FAM174B (11720279_a_at) / RFU TMPRSS4 (11748680_a_at) / Fold change /veh TMPRSS4 (11748680_a_at) / RFU FAM212B (11763350_a_at) / Fold change /veh FAM212B (11763350_a_at) / RFU PLEKHG5 (11743358_a_at) / Fold change /veh PLEKHG5 (11743358_a_at) / RFU ZSCAN30 (11745921_a_at) / Fold change /veh ZSCAN30 (11745921_a_at) / RFU CMKLR1 (11741424_a_at) / Fold change /veh CMKLR1 (11741424_a_at) / RFU LOC101060620 /// MAPK8IP1 (11723275_at) / Fold change /veh LOC101060620 /// MAPK8IP1 (11723275_at) / RFU SPTSSB (11747773_x_at) / Fold change /veh SPTSSB (11747773_x_at) / RFU PRSS12 (11739890_at) / Fold change /veh PRSS12 (11739890_at) / RFU BIN1 (11741810_x_at) / Fold change /veh BIN1 (11741810_x_at) / RFU WNT11 (11732464_a_at) / Fold change /veh WNT11 (11732464_a_at) / RFU C10orf10 (11716521_a_at) / Fold change /veh C10orf10 (11716521_a_at) / RFU C5orf56 (11738089_at) / Fold change /veh C5orf56 (11738089_at) / RFU CYB561 (11721691_x_at) / Fold change /veh CYB561 (11721691_x_at) / RFU ANKRD19P (11752326_a_at) / Fold change /veh ANKRD19P (11752326_a_at) / RFU OR2T12 /// OR2T33 /// OR2T8 (11738714_s_at) / Fold change /veh OR2T12 /// OR2T33 /// OR2T8 (11738714_s_at) / RFU VCAN (11748164_a_at) / Fold change /veh VCAN (11748164_a_at) / RFU JSRP1 (11732532_at) / Fold change /veh JSRP1 (11732532_at) / RFU KRTAP10-11 (11738290_x_at) / Fold change /veh KRTAP10-11 (11738290_x_at) / RFU MYO3A (11730013_a_at) / Fold change /veh MYO3A (11730013_a_at) / RFU EBF3 (11725865_a_at) / Fold change /veh EBF3 (11725865_a_at) / RFU CAMK2N1 (11719241_x_at) / Fold change /veh CAMK2N1 (11719241_x_at) / RFU C5orf56 (11738088_a_at) / Fold change /veh C5orf56 (11738088_a_at) / RFU OLFML3 (11715873_a_at) / Fold change /veh OLFML3 (11715873_a_at) / RFU LOC100653217 /// NTM (11731650_a_at) / Fold change /veh LOC100653217 /// NTM (11731650_a_at) / RFU MAPK11 (11762145_a_at) / Fold change /veh MAPK11 (11762145_a_at) / RFU FIZ1 (11724087_x_at) / Fold change /veh FIZ1 (11724087_x_at) / RFU OASL (11726364_x_at) / Fold change /veh OASL (11726364_x_at) / RFU SOX15 (11748057_x_at) / Fold change /veh SOX15 (11748057_x_at) / RFU CD79A (11719716_a_at) / Fold change /veh CD79A (11719716_a_at) / RFU HIST1H1D (11736915_at) / Fold change /veh HIST1H1D (11736915_at) / RFU CASKIN2 (11723855_a_at) / Fold change /veh CASKIN2 (11723855_a_at) / RFU LOC730098 (11760151_x_at) / Fold change /veh LOC730098 (11760151_x_at) / RFU OR4N2 (11742367_at) / Fold change /veh OR4N2 (11742367_at) / RFU PRRT2 (11749266_a_at) / Fold change /veh PRRT2 (11749266_a_at) / RFU SNX32 (11753110_a_at) / Fold change /veh SNX32 (11753110_a_at) / RFU CDHR5 (11726645_a_at) / Fold change /veh CDHR5 (11726645_a_at) / RFU RCAN1 (11760418_a_at) / Fold change /veh RCAN1 (11760418_a_at) / RFU FAM167A (11723789_a_at) / Fold change /veh FAM167A (11723789_a_at) / RFU FAM26E (11764081_at) / Fold change /veh FAM26E (11764081_at) / RFU ISYNA1 (11749810_s_at) / Fold change /veh ISYNA1 (11749810_s_at) / RFU ACY1 (11761880_at) / Fold change /veh ACY1 (11761880_at) / RFU 11764098_at / Fold change /veh 11764098_at / RFU SAMD14 (11745864_x_at) / Fold change /veh SAMD14 (11745864_x_at) / RFU NPB (11741838_a_at) / Fold change /veh NPB (11741838_a_at) / RFU TMPRSS6 (11731388_a_at) / Fold change /veh TMPRSS6 (11731388_a_at) / RFU KRTAP10-2 (11738614_at) / Fold change /veh KRTAP10-2 (11738614_at) / RFU ARHGAP8 /// PRR5-ARHGAP8 (11727945_x_at) / Fold change /veh ARHGAP8 /// PRR5-ARHGAP8 (11727945_x_at) / RFU KRTAP5-7 /// NADSYN1 (11734609_at) / Fold change /veh KRTAP5-7 /// NADSYN1 (11734609_at) / RFU RASL12 (11751679_a_at) / Fold change /veh RASL12 (11751679_a_at) / RFU CDKN2B (11736163_a_at) / Fold change /veh CDKN2B (11736163_a_at) / RFU PRF1 (11729649_at) / Fold change /veh PRF1 (11729649_at) / RFU, ZNF638 /// ZNF638-IT1 / Fold change vs veh, ZNF638 /// ZNF638-IT1 / RFU, PANK3 / Fold change vs veh, PANK3 / RFU, SH3YL1 / Fold change vs veh, SH3YL1 / RFU, ZEB2 / Fold change vs veh, ZEB2 / RFU, NRIP1 / Fold change vs veh, NRIP1 / RFU, PTTG1IP / Fold change vs veh, PTTG1IP / RFU, CAPN2 / Fold change vs veh, CAPN2 / RFU, MED14 / Fold change vs veh, MED14 / RFU, SNORA58 / Fold change vs veh, SNORA58 / RFU, C1orf63 / Fold change vs veh, C1orf63 / RFU, LRRFIP1 / Fold change vs veh, LRRFIP1 / RFU, NDUFAF7 / Fold change vs veh, NDUFAF7 / RFU, SLC12A2 / Fold change vs veh, SLC12A2 / RFU, IBTK / Fold change vs veh, IBTK / RFU, ESF1 / Fold change vs veh, ESF1 / Fold change vs veh, TMEM50B / RFU, TAOK1 / Fold change vs veh, TAOK1 / RFU, ACBD3 / Fold change vs veh, ACBD3 / RFU, TMA16 / Fold change vs veh, TMA16 / RFU, RWDD3 / Fold change vs veh, RWDD3 / RFU, BCAT1 / Fold change vs veh, BCAT1 / RFU, EDEM3 / Fold change vs veh, EDEM3 / RFU, TMEM33 / Fold change vs veh, TMEM33 / RFU, WDR75 / Fold change vs veh, WDR75 / RFU, AHCTF1 / Fold change vs veh, AHCTF1 / RFU, TFRC / Fold change vs veh, TFRC / RFU, ZDHHC17 / Fold change vs veh, ZDHHC17 / RFU, NOM1 / Fold change vs veh, NOM1 / RFU, ARL8B / Fold change vs veh, ARL8B / RFU, ZBTB11 / Fold change vs veh, ZBTB11 / RFU, TAMM41 / Fold change vs veh, TAMM41 / RFU, KIAA1704 /// LOC100996395 / Fold change vs veh, KIAA1704 /// LOC100996395 / RFU, ING1 / Fold change vs veh, ING1 / RFU, TRMT61B / Fold change vs veh, TRMT61B / RFU, FUBP3 / Fold change vs veh, FUBP3 / RFU, TP53 / Fold change vs veh, TP53 / RFU, TNKS2 / Fold change vs veh, TNKS2 / RFU, ZFP14 / Fold change vs veh, ZFP14 / RFU, ACTR2 / Fold change vs veh, ACTR2 / RFU, PPP3R1 / Fold change vs veh, PPP3R1 / RFU, PIK3R1 / Fold change vs veh, PIK3R1 / RFU, HNRNPA1 / Fold change vs veh, HNRNPA1 / RFU, RNF170 / Fold change vs veh, RNF170 / RFU, ZNF28 / Fold change vs veh, ZNF28 / RFU, RNGTT / Fold change vs veh, RNGTT / RFU, OGT / Fold change vs veh, OGT / RFU, BRD1 / Fold change vs veh, BRD1 / RFU, MARS / Fold change vs veh, MARS / RFU, ZNF655 / Fold change vs veh, ZNF655 / RFU, FAHD1 / Fold change vs veh, FAHD1 / RFU, BDP1 / Fold change vs veh, BDP1 / RFU, LRRCC1 / Fold change vs veh, LRRCC1 / RFU, ARID1A / Fold change vs veh, ARID1A / RFU, ZNF146 / Fold change vs veh, ZNF146 / RFU, ZNF330 / Fold change vs veh, ZNF330 / RFU, GPN3 / Fold change vs veh, GPN3 / RFU, C9orf123 / Fold change vs veh, C9orf123 / RFU, N4BP2L2 / Fold change vs veh, N4BP2L2 / RFU, ARFIP1 / Fold change vs veh, ARFIP1 / RFU, FAM179B / Fold change vs veh, FAM179B / RFU, BCL10 / Fold change vs veh, BCL10 / RFU, UHRF1BP1L / Fold change vs veh, UHRF1BP1L / RFU, BET1 / Fold change vs veh, BET1 / RFU, CNOT2 / Fold change vs veh, CNOT2 / RFU, ZNF268 / Fold change vs veh, ZNF268 / Fold change vs veh, ZNF507 / RFU, DGCR2 / Fold change vs veh, DGCR2 / RFU, WDSUB1 / Fold change vs veh, WDSUB1 / Fold change vs veh, HSP90B1 /// MIR3652 / RFU, ADSS / Fold change vs veh, ADSS / RFU, GK / Fold change vs veh, GK / RFU, ZNF148 / Fold change vs veh, ZNF148 / RFU, TAF9 / Fold change vs veh, TAF9 / RFU, SLC1A5 / Fold change vs veh, SLC1A5 / RFU, SLMO2 / Fold change vs veh, SLMO2 / RFU, ABCC4 / Fold change vs veh, ABCC4 / RFU, LOC101060439 /// RAP1B / Fold change vs veh, LOC101060439 /// RAP1B / RFU, RFX7 / Fold change vs veh, RFX7 / RFU, GTPBP10 / Fold change vs veh, GTPBP10 / RFU, CNEP1R1 / Fold change vs veh, CNEP1R1 / RFU, BIVM-ERCC5 /// ERCC5 / Fold change vs veh, BIVM-ERCC5 /// ERCC5 / RFU, ILF3 / Fold change vs veh, ILF3 / RFU 11762660_at / Fold change /veh 11762660_at / RFU VCAN (11757783_s_at) / Fold change /veh VCAN (11757783_s_at) / RFU DDX43 (11728927_at) / Fold change /veh DDX43 (11728927_at) / RFU KRT8 (11758188_x_at) / Fold change /veh KRT8 (11758188_x_at) / RFU NKD1 (11759106_at) / Fold change /veh NKD1 (11759106_at) / RFU SRD5A1 (11742802_a_at) / Fold change /veh SRD5A1 (11742802_a_at) / RFU TPSAB1 /// TPSB2 (11721975_s_at) / Fold change /veh TPSAB1 /// TPSB2 (11721975_s_at) / RFU GSTM3 (11746129_a_at) / Fold change /veh GSTM3 (11746129_a_at) / RFU IL23R (11737362_x_at) / Fold change /veh IL23R (11737362_x_at) / RFU TMEM51 (11727254_a_at) / Fold change /veh TMEM51 (11727254_a_at) / RFU PIWIL2 (11732686_x_at) / Fold change /veh PIWIL2 (11732686_x_at) / RFU ORM1 (11744905_x_at) / Fold change /veh ORM1 (11744905_x_at) / RFU CCDC152 (11743942_at) / Fold change /veh CCDC152 (11743942_at) / RFU ECM1 (11717891_a_at) / Fold change /veh ECM1 (11717891_a_at) / RFU IL23R (11748794_a_at) / Fold change /veh IL23R (11748794_a_at) / RFU TNFAIP8L3 (11732012_x_at) / Fold change /veh TNFAIP8L3 (11732012_x_at) / RFU MBOAT4 (11741988_at) / Fold change /veh MBOAT4 (11741988_at) / RFU 11764193_at / Fold change /veh 11764193_at / RFU TMEM53 (11763286_at) / Fold change /veh TMEM53 (11763286_at) / RFU MAGEB2 (11727129_at) / Fold change /veh MAGEB2 (11727129_at) / RFU TMEM200A (11744735_a_at) / Fold change /veh TMEM200A (11744735_a_at) / RFU CCDC152 (11751479_a_at) / Fold change /veh CCDC152 (11751479_a_at) / RFU FAM211A (11726209_a_at) / Fold change /veh FAM211A (11726209_a_at) / RFU RGS16 (11746705_a_at) / Fold change /veh RGS16 (11746705_a_at) / RFU VCAN (11755009_s_at) / Fold change /veh VCAN (11755009_s_at) / RFU RHOB (11743442_s_at) / Fold change /veh RHOB (11743442_s_at) / RFU RGS16 (11720943_a_at) / Fold change /veh RGS16 (11720943_a_at) / RFU RGS16 (11720944_at) / Fold change /veh RGS16 (11720944_at) / RFU, VPS4B / Fold change vs veh, VPS4B / RFU, CREB1 / Fold change vs veh, CREB1 / RFU, DNAJC13 / Fold change vs veh, DNAJC13 / RFU, GNAQ / Fold change vs veh, GNAQ / RFU, CDK5R1 / Fold change vs veh, CDK5R1 / RFU, ZRANB3 / Fold change vs veh, ZRANB3 / RFU, CUL4A / Fold change vs veh, CUL4A / RFU, CCNY / Fold change vs veh, CCNY / RFU, UFL1 / Fold change vs veh, UFL1 / RFU, COG3 / Fold change vs veh, COG3 / RFU, DIAPH2 / Fold change vs veh, DIAPH2 / RFU, SKA2 / Fold change vs veh, SKA2 / RFU, AFF3 / Fold change vs veh, AFF3 / RFU, LMF1 / Fold change vs veh, LMF1 / RFU, IPO11 / Fold change vs veh, IPO11 / RFU, DFFB / Fold change vs veh, DFFB / RFU, FOXP1 / Fold change vs veh, FOXP1 / RFU, CARD8 / Fold change vs veh, CARD8 / RFU, STRN3 / Fold change vs veh, STRN3 / RFU, ADK / Fold change vs veh, ADK / RFU, RASSF2 / Fold change vs veh, RASSF2 / RFU, WIPF1 / Fold change vs veh, WIPF1 / RFU, LARP1B / Fold change vs veh, LARP1B / RFU, RASA1 / Fold change vs veh, RASA1 / RFU, RB1 / Fold change vs veh, RB1 / RFU, PPFIA1 / Fold change vs veh, PPFIA1 / RFU, MAT2A / Fold change vs veh, MAT2A / RFU, CCT5 / Fold change vs veh, CCT5 / RFU, WDR92 / Fold change vs veh, WDR92 / RFU, CUX1 / Fold change vs veh, CUX1 / RFU, TTC7A / Fold change vs veh, TTC7A / RFU, TMEM135 / Fold change vs veh, TMEM135 / RFU, DEPTOR / Fold change vs veh, DEPTOR / RFU, CPM / Fold change vs veh, CPM / RFU, DNAJB6 / Fold change vs veh, DNAJB6 / RFU, CACNA2D3 / Fold change vs veh, CACNA2D3 / RFU, DTX4 / Fold change vs veh, DTX4 / RFU, TFCP2 / Fold change vs veh, TFCP2 / RFU, GMCL1 /// GMCL1P1 / Fold change vs veh, GMCL1 /// GMCL1P1 / RFU, AEBP2 / Fold change vs veh, AEBP2 / RFU, SNHG1 /// SNORD22 /// SNORD25 /// SNORD26 /// SNORD27 /// SNORD28 /// SNORD29 /// SNORD31 / Fold change vs veh, SNHG1 /// SNORD22 /// SNORD25 /// SNORD26 /// SNORD27 /// SNORD28 /// SNORD29 /// SNORD31 / Fold change (Aza/veh), C12orf56 (ProbeSet 11735607_a_at) / Fold change (ACY-1035/veh), C12orf56 (ProbeSet 11735607_a_at) / Fold change (Aza/veh), FGFR1OP (ProbeSet 11751329_s_at) / Fold change (ACY-1035/veh), FGFR1OP (ProbeSet 11751329_s_at) / Fold change (Aza/veh), VPS36 (ProbeSet 11739960_a_at) / Fold change (ACY-1035/veh), VPS36 (ProbeSet 11739960_a_at) / RFU SYPL1 (11715823_x_at) / Fold change /veh SYPL1 (11715823_x_at) / RFU IGFBP7 (11715501_s_at) / Fold change /veh IGFBP7 (11715501_s_at) / RFU REEP3 (11722064_at) / Fold change /veh REEP3 (11722064_at) / RFU IGLL1 (11728026_x_at) / Fold change /veh IGLL1 (11728026_x_at): dose or concentration left out as unconfirmed. To be noted: ProbeSet 11743567_s_at; LIST B.

On to `Nc1ncn([C@@H]2O[C@H](CO)[C@@H](O)[C@H]2O)c(=O)n1` [azacitidine], for which the “Fold change vs veh, ACBD3” value was found to be 1.04.
